≈ marks a conversion by molar mass, not a printed value.
Columns and labels:
[1] = target: KRAS G12C (GMPPNP-loaded) and cRAF (Ras-binding domain) interaction (Homo sapiens (Human), UniProt P01116, C118S/C51S/C80L/G12C); test: Inhibition of KRAS G12C and cRAF binding (AlphaScreen); settings: KRAS G12C loaded with GMPPNP, cRaf RBD, 2 hours preincubation; read-out: Raf-1 RBD K-Ras IC50
Summary of the method: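 AlphaScreen readout (680 nm excitation, 570 nm emission) of RBD binding after a 60-90 min bead step at room temperature. This step follows 2 h compound exposure of GMPPNP-preloaded KRAS G12C in Hepes pH 7.4 buffer with MgCl2 and 10 μM GMPPNP.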

[2] = Determination of logD (1-octanol / phosphate buffer pH 7.4); assay type: physicochemical; settings: for logD: 1-octanol/phosphate buffer, pH 7.4, pH 7.4, 1-octanol/phosphate buffer, read-out: Log D, pH 7.4
Description: Preparation of phosphate buffer saturated with 1-octanol: 10 mL of 100 mM phosphate buffer (pH 7.4) was added to 100 mL of 1-octanol. The mixture was shaken vigorously and left to stand at room temperature overnight.
Preparation of 1-octanol saturated with phosphate buffer: 10 mL of 1-octanol was added to 100 mL of 100 mM phosphate buffer (pH 7.4). The mixture was shaken vigorously and left to stand at room temperature overnight.
149 μL of phosphate buffer saturated with 1-octanol was added into 1st sample tube. 149 μL of 1-octanol saturated with phosphate buffer was added into the 2nd sample tube. The sample tubes were mixed vigorously and shaken for 1 hour at a speed of 800 rpm at room temperature. The sample tubes were subjected to centrifugation at 4000 rpm for 5 minutes at room temperature. Samples of the supernatant were taken from both tubes, diluted with an appropriate LCMS buffer, and analyzed on an LCMS instrument. LogD was calculated according to the following equation.

[3] = Determination of kinetic solubility (pH 7.4); assay type: physicochemical; settings: for solubility kinetic at 2 h: phosphate buffer, pH 7.4, aqueous buffer, kinetic from dmso stock, 50 mM phosphate buffer pH 7.4, read-out: Ksol, pH 7.4
Description: 490 μL of a 50 mM phosphate buffer (pH 7.4) was added to the sample solution. The mixture was vortexed for at least 2 minutes. The vial was shaken on a Barnstead shaker at 800 rpm at room temperature for 2 hours. The vial was centrifuged at 4000 rpm for 20 minutes. The Mini-UniPrep vial was compressed to prepare a filtrate, which was injected into an HPLC-UV and LC-MS/MS system. Kinetic solubility was calculated by referencing sample peak areas to a standard calibration curve.

KRAS G12C (GMPPNP-loaded) and cRAF (Ras-binding domain) interaction, sequence (P01116 other isoform, or with tags, fused parts or gaps G12C/C51S/C80L/C118S): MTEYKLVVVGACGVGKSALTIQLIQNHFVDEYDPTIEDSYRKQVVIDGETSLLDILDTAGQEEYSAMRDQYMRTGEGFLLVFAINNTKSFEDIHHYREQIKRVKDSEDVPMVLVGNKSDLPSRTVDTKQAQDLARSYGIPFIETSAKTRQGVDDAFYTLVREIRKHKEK

IC50 [1] [nM]	logD [2]	solubility kinetic at 2 h [3] [µg/mL]	Log D, pH 7.4 ([2]; pH 7.4, 1-octanol/phosphate buffer)	Ksol, pH 7.4 (ug/mL) ([3]; 50 mM phosphate buffer pH 7.4)	SMILES
100 to 500	3.73	50 (≈ 66.7 µM)	–	–	CC(C)(C)c1noc(/C=C/C(=O)N2CCN(c3nc(OCC45CCCN4CCC5)nc4c(F)c(-c5cccc6cccc(Cl)c56)ncc34)C[C@@H]2CC#N)n1 [Compound 33]
100 to 500	2.77	111 (≈ 161 µM)	–	–	N#CC[C@H]1CN(c2nc(OCC34CCCN3CCC4)nc3c2CCN(c2cccc4cccc(Cl)c24)C3)CCN1C(=O)/C=C/c1ncccn1 [Compound 35]
10 to 100	3.98	2.62 (≈ 3.55 µM)	–	–	N#CC[C@H]1CN(c2nc(OCC34CCCN3CCC4)nc3c2CCN(c2cccc4cccc(Cl)c24)C3)CCN1C(=O)/C=C/c1nc([C@H]2C[C@@H]2F)no1 [Compound 36]
10 to 100	4.85	0.01 (≈ 0.0132 µM)	–	–	N#CC[C@H]1CN(c2nc(OC[C@@]34CCCN3C[C@H](F)C4)nc3c2CCN(c2cccc4cccc(Cl)c24)C3)CCN1C(=O)/C=C/c1nc([C@H]2C[C@@H]2F)no1 [Compound 37]
100 to 500	2.91	53.9 (≈ 71.7 µM)	–	–	N#CC[C@H]1CN(c2nc(OCC34CCCN3CCC4)nc3c(F)c(-c4cccc5cccc(Cl)c45)ncc23)CCN1C(=O)/C=C/c1nc([C@H]2C[C@@H]2F)no1 [Compound 38]
< 10	1.08	94.8 (≈ 128 µM)	–	–	N#CC[C@H]1CN(c2nc(OC[C@@]34CCCN3C[C@H](F)C4)nc3c(F)c(-c4nc(N)cc5cccc(F)c45)ncc23)CCN1C(=O)/C=C/CN1CCOCC1 [Compound 60]
> 500	1.22	88.7 (≈ 131 µM)	–	–	N#CC[C@H]1CN(c2nc(OCC34CCCN3CCC4)nc3c2CCN(c2ccccc2C(F)F)C3)CCN1C(=O)/C=C/CN1CCOCC1 [Compound 61]
< 10	2.06	95.1 (≈ 131 µM)	–	–	N#CC[C@H]1CN(c2nc(OCC34CCCN3CCC4)nc3c2CCN(c2cccc4cccc(Cl)c24)C3)CCN1C(=O)/C=C/CN1C[C@@H]2C[C@H]1CO2 [Compound 62]
< 10	2.9	78.6 (≈ 104 µM)	–	–	N#CC[C@H]1CN(c2nc(OC[C@@]34CCCN3C[C@H](F)C4)nc3c(F)c(-c4cccc5ccc(F)c(F)c45)ncc23)CCN1C(=O)/C=C/CN1CCCOCC1 [Compound 110, 2-((S)-1-((E)-4-(1,4-oxazepan-4-yl)but-2-enoyl)-4-(7-(7,8-difluoronaphthalen-1-yl)-8-fluoro-2-(((2R,7aS)-2-fluorotetrahydro-1H-pyrrolizin-7a(5H)-yl)methoxy)pyrido[4,3-d]pyrimidin-4-yl)piperazin-2-yl)acetonitrile]
< 10	3.28	52.4 (≈ 70.1 µM)	–	–	N#CC[C@H]1CN(c2nc(OC[C@@]34CCCN3C[C@H](F)C4)nc3c(F)c(-c4cccc(Cl)c4C4CC4)ncc23)CCN1C(=O)/C=C/CN1CCCOCC1 [Compound 112, 2-((S)-1-((E)-4-(1,4-oxazepan-4-yl)but-2-enoyl)-4-(7-(3-chloro-2-cyclopropylphenyl)-8-fluoro-2-(((2R,7aS)-2-fluorotetrahydro-1H-pyrrolizin-7a(5H)-yl)methoxy)pyrido[4,3-d]pyrimidin-4-yl)piperazin-2-yl)acetonitrile]

More lines, now with the values behind:

SMILES	IC50 [1] [nM]	logD [2]	solubility kinetic at 2 h [3] [µg/mL]	Log D, pH 7.4 ([2]; pH 7.4, 1-octanol/phosphate buffer)	Ksol, pH 7.4 (ug/mL) ([3]; 50 mM phosphate buffer pH 7.4)
Cc1nnc(/C=C/C(=O)N2CCN(c3nc(OCC45CCCN4CCC5)nc4c3CCN(c3cccc5cccc(Cl)c35)C4)C[C@@H]2CC#N)[nH]1 [Compound 29]	> 500	2.84	74.7 (≈ 108 µM)	–	–
Cc1noc(/C=C/C(=O)N2CCN(c3nc(OCC45CCCN4CCC5)nc4c3CCN(c3cccc5cccc(Cl)c35)C4)C[C@@H]2CC#N)n1 [Compound 32]	10 to 100	–	–	3.62	79.78
CC(C)(C)c1noc(/C=C/C(=O)N2CCN(c3nc(OC[C@@]45CCCN4C[C@H](F)C5)nc4c(F)c(-c5cccc6cccc(Cl)c56)ncc34)C[C@@H]2CC#N)n1 [Compound 34]	100 to 500	5.11	0.01 (≈ 0.013 µM)	–	–
CC1(c2noc(/C=C/C(=O)N3CCN(c4nc(OC[C@@]56CCCN5C[C@H](F)C6)nc5c(F)c(-c6cccc7cccc(Cl)c67)ncc45)C[C@@H]3CC#N)n2)CC1 [Compound 47]	100 to 500	4.59	0.01 (≈ 0.0131 µM)	–	–
CCc1c(F)ccc2cccc(-c3ncc4c(N5CCN(C(=O)/C=C/CN6[C@@H]7CC[C@H]6COC7)[C@@H](CC#N)C5)nc(OC[C@@]56CCCN5C[C@H](F)C6)nc4c3F)c12 [Compound 99, 2-((S)-1-((E)-4-((1R,5S)-3-oxa-8-azabicyclo[3.2.1]octan-8-yl)but-2-enoyl)-4-(7-(8-ethyl-7-fluoronaphthalen-1-yl)-8-fluoro-2-(((2R,7aS)-2-fluorotetrahydro-1H-pyrrolizin-7a(5H)-yl)methoxy)pyrido[4,3-d]pyrimidin-4-yl)piperazin-2-yl)acetonitrile]	< 10	3.4	78 (≈ 99.8 µM)	–	–
Cc1cc(/C=C/C(=O)N2CCN(c3nc(OC[C@@]45CCCN4C[C@H](F)C5)nc4c(F)c(-c5cccc6ccc(F)c(C)c56)ncc34)C[C@@H]2CC#N)nc(C)n1 [Compound 105, 2-((S)-1-((E)-3-(2,6-dimethylpyrimidin-4-yl)acryloyl)-4-(8-fluoro-7-(7-fluoro-8-methylnaphthalen-1-yl)-2-(((2R,7aS)-2-fluorotetrahydro-1H-pyrrolizin-7a(5H)-yl)methoxy)pyrido[4,3-d]pyrimidin-4-yl)piperazin-2-yl)acetonitrile]	< 10	3.99	2.36 (≈ 3.16 µM)	–	–
C#Cc1c(F)ccc2cccc(-c3ncc4c(N5CCN(C(=O)/C=C/CN6[C@@H]7CC[C@H]6COC7)[C@@H](CC#N)C5)nc(OC[C@@]56CCCN5C[C@H](F)C6)nc4c3F)c12 [Compound 107, 2-((S)-1-((E)-4-((1R,5S)-3-oxa-8-azabicyclo[3.2.1]octan-8-yl)but-2-enoyl)-4-(7-(8-ethynyl-7-fluoronaphthalen-1-yl)-8-fluoro-2-(((2R,7aS)-2-fluorotetrahydro-1H-pyrrolizin-7a(5H)-yl)methoxy)pyrido[4,3-d]pyrimidin-4-yl)piperazin-2-yl)acetonitrile]	< 10	2.93	132 (≈ 170 µM)	–	–
N#CC[C@H]1CN(c2nc(OC[C@@]34CCCN3C[C@H](F)C4)nc3c(F)c(-c4cccc5cccc(Cl)c45)ncc23)CCN1C(=O)/C=C/CN1CC2CCC1CO2 (stereo partly drawn) [Compound 108, 2-((2S)-1-((E)-4-(2-oxa-5-azabicyclo[2.2.2]octan-5-yl)but-2-enoyl)-4-(7-(8-chloronaphthalen-1-yl)-8-fluoro-2-(((2R,7aS)-2-fluorohexahydro-1H-pyrrolizin-7a-yl)methoxy)pyrido[4,3-d]pyrimidin-4-yl)piperazin-2-yl)acetonitrile]	< 10	3	88 (≈ 114 µM)	–	–
N#CC[C@H]1CN(c2nc(OC[C@@]34CCCN3C[C@H](F)C4)nc3c(F)c(-c4cccc5cccc(Cl)c45)ncc23)CCN1C(=O)/C=C/CN1CCCOCC1 [Compound 109, 2-((S)-1-((E)-4-(1,4-oxazepan-4-yl)but-2-enoyl)-4-(7-(8-chloronaphthalen-1-yl)-8-fluoro-2-(((2R,7aS)-2-fluorohexahydro-1H-pyrrolizin-7a-yl)methoxy)pyrido[4,3-d]pyrimidin-4-yl)piperazin-2-yl)acetonitrile]	< 10	2.6	127 (≈ 167 µM)	–	–
CN(C)C/C=C/C(=O)N1CCN(c2nc(OC[C@@]34CCCN3C[C@H](F)C4)nc3c(F)c(-c4cccc(Cl)c4C(F)(F)F)ncc23)C[C@@H]1CC#N [Compound 114, 2-((S)-4-(7-(3-chloro-2-(trifluoromethyl)phenyl)-8-fluoro-2-(((2R,7aS)-2-fluorotetrahydro-1H-pyrrolizin-7a(5H)-yl)methoxy)pyrido[4,3-d]pyrimidin-4-yl)-1-((E)-4-(dimethylamino)but-2-enoyl)piperazin-2-yl)acetonitrile]	< 10	2.35	121 (≈ 168 µM)	–	–
CN(C)C/C=C/C(=O)N1CCN(c2nc(OC[C@@]34CCCN3C[C@H](F)C4)nc3c(F)c(-c4cccc(Cl)c4C4CC4)ncc23)C[C@@H]1CC#N [Compound 115, 2-((S)-4-(7-(3-chloro-2-cyclopropylphenyl)-8-fluoro-2-(((2R,7aS)-2-fluorotetrahydro-1H-pyrrolizin-7a(5H)-yl)methoxy)pyrido[4,3-d]pyrimidin-4-yl)-1-((E)-4-(dimethylamino)but-2-enoyl)piperazin-2-yl)acetonitrile]	10 to 100	2.54	114 (≈ 165 µM)	–	–

Reference: patent publication US20250129103A1, “METHODS FOR TREATMENT OF CANCER” (Frontier Medicines Corporation, priority 2022, published 2025)
